Measurements taken from US6455045B1, “Immunogenic compounds with in particular an anti-cytokine effect, preparation process, pharmaceutical compositions and kits containing them” (priority 1991, dated 2002).
No end group written: not given here.

Tests used:
[1] = system: T-cells originating from fresh human blood; assay type: cell-based
[2] = system: HIV-1 env bands (gp160, gp120, gp41); assay: Western blot (Abott HIV-1 detection kit) with serums of peptide-immunized mice; assay type: in vivo; conditions: 15 μg per injection days 0, 30, 60, day 70
Protocol: Four batches of five mice were chosen to receive the peptides SI Nos. 1, 2, 6, 10 respectively.
The peptides prepared as described in Example 2 were injected on days 0, 30, 60 in a quantity of 15 μg per injection. On day 70 the mice were sacrificed, their T-cells were isolated (spleen and ganglia) and their serum was stored.

Row | Substance | activation of T-cells (incorporation of labelled thymidine) [1] | Western blot bands showing a signal [2]
1 | Cys-Gln-His-Leu-Leu-Gln-Leu-Thr-Val-Trp-Gly-Ile-Lys-Glu or Gln-Leu-Glu Gln-Ala-Arg-Ile-Leu-Ala-Val-Glu-Arg-Tyr-Leu-Lys-Asp-Gln [SI No. 5] | low activation according to a dose-effect curve | –
2 | SI No. 2: peptide SI No. 2, a or b form not stated; prepared in proteosomes as in Example 2 (probably 2b); HIV-1 gp41 region 735-753 (DRPEGIEEEGGERDRDRS) | – | gp160 and gp41
3 | QLLLNGSLAEEE [SI No. 10] | low activation according to a dose-effect curve | gp60 and gp120 bands showed a signal
4 | Cys-Ser-Ala-Thr-Glu-Lys-Leu-Trp-Val-Thr-Val-Tyr-Tyr [SI No. 7] | low activation according to a dose-effect curve | –
5 | SI No. 1: peptide SI No. 1, a or b form not stated; prepared in proteosomes as in Example 2 (probably 1b); HIV-1 gag P7 region (IARNCRAPRKKG) | – | gp60 and gp120 bands showed a signal
6 | His-Glu-Asp-Ile-Ile-Ser-Leu-Trp-Asp-Gln-Ser-Leu-Lys [SI No. 6] | low activation according to a dose-effect curve | gp60 and gp120 bands showed a signal
